{
  "source": "patent US10131644B2",
  "about": "“Aryl sultam derivatives as RORc modulators” (Genentech, Inc., priority 2014, dated 2018)",
  "data": [
    {"target": "T1, RORc (Homo sapiens, UniProt P51449)", "T1 sequence (P51449 269-508 limits assumed)": "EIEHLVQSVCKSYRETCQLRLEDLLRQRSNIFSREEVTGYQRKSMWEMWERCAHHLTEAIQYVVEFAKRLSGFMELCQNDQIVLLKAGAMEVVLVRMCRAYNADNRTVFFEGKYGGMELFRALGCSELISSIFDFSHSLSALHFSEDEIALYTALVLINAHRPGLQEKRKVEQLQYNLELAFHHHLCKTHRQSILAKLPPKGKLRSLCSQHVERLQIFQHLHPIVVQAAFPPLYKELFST", "test": "In vitro RORc ligand binding assay (25-[3H]hydroxycholesterol displacement)", "conditions": "IC50, IC50 values for RORc; unit inferred", "units": {"IC50": "nM"}, "values": [
      {"compound": "C[C@H]1CC[C@H](c2ccccc2)S(=O)(=O)N1Cc1ccc(C2(CCO)CCOCC2)cc1F", "note": "[Compound 78, 2-[4-[3-fluoro-4-[[(3S,6R)-3-methyl-1,1-dioxo-6-phenyl-thiazinan-2-yl]methyl]phenyl]tetrahydropyran-4-yl]ethanol]", "IC50": 13.7},
      {"compound": "CCOC(=O)CCC1(c2ccc(CN3[C@@H](C)CC[C@H](c4ccccc4)S3(=O)=O)c(F)c2)CCOCC1", "note": "[Compound 79, ethyl 3-[4-[3-fluoro-4-[[(3S,6R)-3-methyl-1,1-dioxo-6-phenyl-thiazinan-2-yl]methyl]phenyl]tetrahydropyran-4-yl]propanoate]", "IC50": 4.9},
      {"compound": "CC(=O)N(C)CC1(c2ccc(CN3[C@@H](C)CC[C@H](c4ccccc4)S3(=O)=O)c(F)c2)CCOCC1", "note": "[Compound 80, N-[[4-[3-fluoro-4-[[(3S,6R)-3-methyl-1,1-dioxo-6-phenyl-thiazinan-2-yl]methyl]phenyl]tetrahydropyran-4-yl]methyl]-N-methyl-acetamide]", "IC50": 104},
      {"compound": "C[C@H]1CC[C@H](c2ccccc2)S(=O)(=O)N1Cc1ccc(C2(CCCO)CCOCC2)cc1F", "note": "[Compound 81, 3-[4-[3-fluoro-4-[[(3S,6R)-3-methyl-1,1-dioxo-6-phenyl-thiazinan-2-yl]methyl]phenyl]tetrahydropyran-4-yl]propan-1-ol]", "IC50": 6.2},
      {"compound": "COCCOCC1(c2ccc(CN3[C@@H](C)CC[C@H](c4ccccc4)S3(=O)=O)c(F)c2)CCOCC1", "note": "[Compound 82, (3S,6R)-2-[[2-fluoro-4-[4-(2-methoxyethoxymethyl)tetrahydropyran-4-yl]phenyl]methyl]-3-methyl-6-phenyl-thiazinane 1,1-dioxide]", "IC50": 70.5},
      {"compound": "C[C@H]1CC[C@H](c2ccccc2)S(=O)(=O)N1Cc1ccc(C2(COCCO)CCOCC2)cc1F", "note": "[Compound 83, 2-[[4-[3-fluoro-4-[[(3S,6R)-3-methyl-1,1-dioxo-6-phenyl-thiazinan-2-yl]methyl]phenyl]tetrahydropyran-4-yl]methoxy]ethanol]", "IC50": 46},
      {"compound": "C[C@H]1CC[C@H](c2ccccc2)S(=O)(=O)N1Cc1ccc(C2(CCC(=O)O)CCOCC2)cc1F", "note": "[Compound 84, 3-[4-[3-fluoro-4-[[(3S,6R)-3-methyl-1,1-dioxo-6-phenyl-thiazinan-2-yl]methyl]phenyl]tetrahydropyran-4-yl]propanoic acid]", "IC50": 49.2},
      {"compound": "C[C@H]1CC[C@H](c2ccccc2)S(=O)(=O)N1Cc1ccc(C2(CCC(=O)N(C)C)CCOCC2)cc1F", "note": "[Compound 85, 3-[4-[3-fluoro-4-[[(3S,6R)-3-methyl-1,1-dioxo-6-phenyl-thiazinan-2-yl]methyl]phenyl]tetrahydropyran-4-yl]-N,N-dimethyl-propanamide]", "IC50": 10.5},
      {"compound": "C[C@H]1CC[C@H](c2ccccc2)S(=O)(=O)N1Cc1ccc(C2(CCC#N)CCOCC2)cc1F", "note": "[Compound 86, 3-[4-[3-fluoro-4-[[(3S,6R)-3-methyl-1,1-dioxo-6-phenyl-thiazinan-2-yl]methyl]phenyl]tetrahydropyran-4-yl]propanenitrile]", "IC50": 7.8},
      {"compound": "C[C@H]1CC[C@H](c2ccccc2)S(=O)(=O)N1Cc1ccc(C2(CCC(N)=O)CCOCC2)cc1F", "note": "[Compound 87, 3-[4-[3-fluoro-4-[[(3S,6R)-3-methyl-1,1-dioxo-6-phenyl-thiazinan-2-yl]methyl]phenyl]tetrahydropyran-4-yl]propanamide]", "IC50": 8.8},
      {"compound": "CNC(=O)CCC1(c2ccc(CN3[C@@H](C)CC[C@H](c4ccccc4)S3(=O)=O)c(F)c2)CCOCC1", "note": "[Compound 88, 3-[4-[3-fluoro-4-[[(3S,6R)-3-methyl-1,1-dioxo-6-phenyl-thiazinan-2-yl]methyl]phenyl]tetrahydropyran-4-yl]-N-methyl-propanamide]", "IC50": 14.8},
      {"compound": "C[C@H]1CC[C@H](c2ccccc2)S(=O)(=O)N1Cc1ccc(C2(CC(N)=O)CCOCC2)cc1F", "note": "[Compound 89, 2-[4-[3-fluoro-4-[[(3S,6R)-3-methyl-1,1-dioxo-6-phenyl-thiazinan-2-yl]methyl]phenyl]tetrahydropyran-4-yl]acetamide]", "IC50": 376},
      {"compound": "COCC1(c2ccc(CN3[C@@H](C)CC[C@H](c4ccccc4)S3(=O)=O)c(F)c2)CCOCC1", "note": "[Compound 90, (3S,6R)-2-[[2-fluoro-4-[4-(methoxymethyl)tetrahydropyran-4-yl]phenyl]methyl]-3-methyl-6-phenyl-thiazinane 1,1-dioxide]", "IC50": 67},
      {"compound": "COCCCOCC1(c2ccc(CN3[C@@H](C)CC[C@H](c4ccccc4)S3(=O)=O)c(F)c2)CCOCC1", "note": "[Compound 91, (3S,6R)-2-[[2-fluoro-4-[4-(3-methoxypropoxymethyl)tetrahydro-pyran-4-yl]phenyl]methyl]-3-methyl-6-phenyl-thiazinane 1,1-dioxide]", "IC50": 103},
      {"compound": "C[C@H]1CC[C@H](c2ccccc2)S(=O)(=O)N1Cc1ccc(C2(COCCCO)CCOCC2)cc1F", "note": "[Compound 92, 3-[[4-[3-fluoro-4[[(3S,6R)-3-methyl-1,1-dioxo-6-phenyl-thiazinan-2-yl]methyl]phenyl]tetrahydropyran-4-yl]methoxy]propan-1-ol]", "IC50": 75.8},
      {"compound": "C[C@H]1CC[C@H](c2ccccc2)S(=O)(=O)N1Cc1ccc(C2(/C(N)=N\\O)CCOCC2)cc1F", "note": "[Compound 93, 4-[3-fluoro-4-[[(3S,6R)-3-methyl-1,1-dioxo-6-phenyl-thiazinan-2-yl]methyl]phenyl]-N′-hydroxy-tetrahydropyran-4-carboxamidine]", "IC50": 37.8},
      {"compound": "CC(=O)NC1(c2ccc(CN3[C@@H](C)CC[C@H](c4ccccc4)S3(=O)=O)c(F)c2)CCOCC1", "note": "[Compound 94, N-[4-[3-fluoro-4-[[(3S,6R)-3-methyl-1,1-dioxo-6-phenyl-thiazinan-2-yl]methyl]phenyl]tetrahydropyran-4-yl]acetamide]", "IC50": 93.2},
      {"compound": "C[C@H]1CC[C@H](c2ccccc2)S(=O)(=O)N1Cc1ccc(C2(NC(=O)CO)CCOCC2)cc1F", "note": "[Compound 95, N-[4-[3-fluoro-4-[[(3S,6R)-3-methyl-1,1-dioxo-6-phenyl-thiazinan-2-yl]methyl]phenyl]tetrahydropyran-4-yl]-2-hydroxy-acetamide]", "IC50": 122},
      {"compound": "C[C@H]1CC[C@H](c2ccccc2)S(=O)(=O)N1Cc1cc(F)c(C2(C(=O)O)CCOCC2)cc1F", "note": "[Compound 96, 4-[2,5-difluoro-4-[[(3S,6R)-3-methyl-1,1-dioxo-6-phenyl-thiazinan-2-yl]methyl]phenyl]tetrahydropyran-4-carboxylic acid]", "IC50": 214},
      {"compound": "C[C@H]1CC[C@H](c2ccccc2)S(=O)(=O)N1Cc1ccc(C2([C@@H](O)CO)CCOCC2)cc1F", "note": "[Compound 98, (1R)-1-[4-[3-fluoro-4-[[(3S,6R)-3-methyl-1,1-dioxo-6-phenyl-thiazinan-2-yl]methyl]phenyl]tetrahydropyran-4-yl]ethane-1,2-diol]", "IC50": 63},
      {"compound": "C[C@H]1CC[C@H](c2ccccc2)S(=O)(=O)N1Cc1ccc(C2(OCCO)CCOCC2)cc1F", "note": "[Compound 99, 2-[4-[3-fluoro-4-[[(3S,6R)-3-methyl-1,1-dioxo-6-phenyl-thiazinan-2-yl]methyl]phenyl]tetrahydropyran-4-yl]oxyethanol]", "IC50": 66.4},
      {"compound": "C[C@H]1CC[C@H](c2ccccc2)S(=O)(=O)N1Cc1cc(F)c(C2(C(=O)NCC#N)CCOCC2)cc1F", "note": "[Compound 100, N-(cyanomethyl)-4[2,5-difluoro-4-[[(3S,6R)-3-methyl-1,1-dioxo-6-phenyl-thiazinan-2-yl]methyl]phenyl]tetrahydropyran-4-carboxamide]", "IC50": 31},
      {"compound": "C[C@H]1CC[C@H](c2ccccc2)S(=O)(=O)N1Cc1cc(F)c(C2(CO)CCOCC2)cc1F", "note": "[Compound 101, [4-[2,5-difluoro-4-[[(3S,6R)-3-methyl-1,1-dioxo-6-phenyl-thiazinan-2-yl]methyl]phenyl]tetrahydropyran-4-yl]methanol]", "IC50": 9},
      {"compound": "C[C@H]1CC[C@H](c2ccccc2)S(=O)(=O)N1Cc1cc(F)c(C2(C(N)=O)CCOCC2)cc1F", "note": "[Compound 102, 4-[2,5-difluoro-4-[[(3S,6R)-3-methyl-1,1-dioxo-6-phenyl-thiazinan-2-yl]methyl]phenyl]tetrahydropyran-4-carboxamide]", "IC50": 37.8},
      {"compound": "C[C@H]1CC[C@H](c2ccccc2)S(=O)(=O)N1Cc1ccc(C2([C@H](O)CO)CCOCC2)cc1F", "note": "[Compound 103, (1S)-1-[4-[3-fluoro-4-[[(3S,6R)-3-methyl-1,1-dioxo-6-phenyl-thiazinan-2-yl]methyl]phenyl]tetrahydropyran-4-yl]ethane-1,2-diol]", "IC50": 68.9},
      {"compound": "CCOC(=O)COCC1(c2ccc(CN3[C@@H](C)CC[C@H](c4ccccc4)S3(=O)=O)c(F)c2)CCOCC1", "note": "[Compound 104, ethyl 2-[[4-[3-fluoro-4-[[(3S,6R)-3-methyl-1,1-dioxo-6-phenyl-thiazinan-2-yl]methyl]phenyl]tetrahydropyran-4-yl]methoxy]acetate]", "IC50": 23.8},
      {"compound": "C[C@H]1CC[C@H](c2ccccc2)S(=O)(=O)N1Cc1ccc(C2(CC#N)COC2)cc1F", "note": "[Compound 105, 2-[3-[3-fluoro-4-[[(3S,6R)-3-methyl-1,1-dioxo-6-phenyl-thiazinan-2-yl]methyl]phenyl]oxetan-3-yl]acetonitrile]", "IC50": 74.9},
      {"compound": "C[C@H]1CC[C@H](c2ccccc2)S(=O)(=O)N1Cc1ccc(C2(NCCO)CCOCC2)cc1F", "note": "[Compound 106, 2-[[4-[3-fluoro-4-[[(3S,6R)-3-methyl-1,1-dioxo-6-phenyl-thiazinan-2-yl]methyl]phenyl]tetrahydropyran-4-yl]amino]ethanol]", "IC50": 137},
      {"compound": "C[C@H]1CC[C@H](c2ccccc2)S(=O)(=O)N1Cc1ccc(C2(NC[C@H](O)CO)CCOCC2)cc1F", "note": "[Compound 107, (2S)-3-[[4-[3-fluoro-4-[[(3S,6R)-3-methyl-1,1-dioxo-6-phenyl-thiazinan-2-yl]methyl]phenyl]tetrahydropyran-4-yl]amino]propane-1,2-diol]", "IC50": 22.6},
      {"compound": "C[C@H]1CC[C@H](c2ccccc2)S(=O)(=O)N1Cc1ccc(C2(NC[C@@H](O)CO)CCOCC2)cc1F", "note": "[Compound 108]", "IC50": 50.4}
    ]}
  ]
}
